According to patent US5401772A, “Heteroacetic acid derivatives” (Ciba-Geigy Corporation, priority 1993, dated 1995):

What was measured:
Assay type in all cases: in vivo
serum cholesterol [1] = test: Cholesterol lowering activity in the rat (high cholesterol diet); conditions: po, 168 h, p.o., 7 consecutive days, read-out: daily dose that significantly lowers serum cholesterol
Method: Cholesterol lowering activity is determined in the rat as follows:
(§1) Male Sprague-Dawley rats (230-250 g) (Taconic Farms) are maintained ad libium on water and a high cholesterol diet (1.5% cholesterol and 0.5% cholic acid) for two weeks prior to and during the 7-day treatment period. Groups of animals are treated orally by gavage with the vehicle alone or with test compound for 7 consecutive days. After the host dose, animals are fasted for 18 hours and blood is collected. Blood samples are centrifuged at 2500 rpm for 10 minutes to prepare plasma for total cholesterol determination as well as LDL and HDL cholesterol concentrations. HDL values are determined after LDL/VLDL precipitation (Warnick and Albers, 1978). All samples are analyzed enzymatically for cholesterol with a diagnostic reagent kit (Sigma Chemical Co., St. Louis, MO). The analysis is performed on a Bio-Mek automated work station. LDL/VLDL fractions are precipitated in the following manner: 0.35 ml of plasma is aliquoted into Eppendorf tubes to which 12 μl of 2M manganese chloride, 11.2 μl of sodium heparin (Porcine Intestinal, 5000 units/ml), and 8.3 μl of normal saline are added. The samples are vortexed and are placed on ice for 15 minutes, then centrifuged at 4° C. for 10 minutes at 1300 rpm and the supernatant is enzymatically analyzed for cholesterol. […]

serum cholesterol [2] = test: Cholesterol-lowering activity in normocholesterolemic dogs; conditions: Canis lupus familiaris, po, 120 h, dog, p.o., 5 days, regular chow, read-out: daily dose that significantly lowers serum cholesterol
Method: as §1, with “LDL/VLDL fractions are precipitated in the following manner: 0.35 ml of plasma is aliquoted into Eppendorf tubes to which 12 μl of 2M manganese chloride, 11.2 μl of sodium heparin (Porcine Intestinal, 5000 units/ml), and 8.3 μl of normal saline are added.” left out
(§2) Cholesterol-lowering activity can also be evaluated in normocholesterolemic dogs fed regular chow following the procedure described above, by administration of test compound orally for 5 days; also in normolipomic cynomolgus monkeys.

serum cholesterol [3] = test: Cholesterol-lowering activity in normolipomic cynomolgus monkeys; conditions: Macaca fascicularis, po, monkey, p.o., read-out: daily dose that significantly lowers serum cholesterol
Method: as §1, with “LDL/VLDL fractions are precipitated in the following manner: 0.35 ml of plasma is aliquoted into Eppendorf tubes to which 12 μl of 2M manganese chloride, 11.2 μl of sodium heparin (Porcine Intestinal, 5000 units/ml), and 8.3 μl of normal saline are added.” left out
as §2

Compound	minimal effective dose (serum cholesterol [1]) [mg/kg/day]	minimal effective dose (serum cholesterol [2]) [mg/kg/day]	minimal effective dose (serum cholesterol [3]) [mg/kg/day]
Cc1cc(NC(=O)C(=O)O)cc(C)c1Oc1ccc(O)c(C(C)C)c1 [N-[3,5-dimethyl-4-(4'-hydroxy-3'-isopropylphenoxy)-phenyl]oxamic acid]	~0.02	~0.03	
CCOC(=O)C(=O)Nc1cc(C)c(Oc2ccc(O)c(C(O)c3ccc(F)cc3)c2)c(C)c1 (centres unmarked) [ethyl N-[4-[3'-[(4-fluorophenyl) hydroxymethyl]-4'-hydroxyphenoxy]-3,5-dimethylphenyl]oxamate]	~0.005	~0.01	~0.001
